Laboratory results taken from patent US20040235717A1, “Suppression of androgen receptor transactivation through new pathways to ar and ar coactivators and repressors” (priority 2001, published 2004).
Entries after “also recorded” stand apart in the source; their conditions may differ.

Key:
AR protein stability = assay: Pulse-chase labeling of AR in COS-1 cells; type: cell-based; details: LY294002 20 μM
Protocol: 30. […] The cells were harvested for Western blot analysis. […] Western blot analysis was performed and AR and PTEN were detected by AR antibody or PTEN antibody. (C) PTEN-C1 cells were treated with 4 μg/ml Dox in 10% CDS media for 48 h. Total RNA was prepared and Northern blot analysis was performed using [^32P]-dCTP-labeled AR (aa, 1-389) as a probe. (D) COS-1 cells were transfected with AR along with pCDNA3 or PTEN in 10% CDS media for 16 h. […] The cell extracts were immunoprecipitated with AR antibody and subjected to SDS-PAGE followed by autoradiography. Data were from three identical results. (E) COS-1 cells were transfected with AR along with pCDNA3 or dAkt in 10% CDS media for 16 h, pulsed with [^35S]-methionine for 45 min, and then harvested at different chase times as indicated. LY294002 (20 μM) was added 2 h before pulsing with [^35S]-methionine.
317. Pulse-chase experiments were performed as described (Lo et al. (1999) Nat Cell Biol 1, 472-8) with some modifications. Briefly, COS-1 cells were transfected with pSG5-AR in combination with pCDNA3 or pCDNA3 PTEN in 10% CDS media for […]. Cells were grown under serum starvation conditions for 2 h in methionine/cysteine-deficient medium, and then the cells were pulsed for 45 min with 200 μCi/ml [^35S]-methionine/cysteine (NEN). […]

Akt = Akt activity in LNCaP cells, Western blot with phospho-Akt (Ser473) antibody; type: cell-based; details: LNCaP cells stably transfected with dAkt
Protocol: 18. […] (A) Akt suppressed androgen/AR-induced p21 promoter activity. […] (B) Androgen/AR-induced PC-3(AR)6 apoptosis and p21 protein expression was blocked by Akt PC-3(AR)6 was transfected with pCDNA3, cAkt, or dAkt, as indicated, for 16 h. […] (C) AR-induced p21 protein expression was enhanced by dAkt in LNCaP cells. […] LNCaP stable transfection with dAkt was confirmed by western blot assay using phospho-Akt (Ser473) antibody. […] TPA was then added for another 24 h and cell apoptosis was determined by TUNEL assay. […] IGF-1 was added for another 30 min, followed by 10 nM TPA treatment for another 24 h. The apoptosis was determined by TUNEL assay. The data are means±s.d. from three independent experiments.
31. […] (D) The LNCaP cells were transfected with plasmids as indicated for 16 h, and the medium was changed to 0.1% CDS media for 2 days. The cell apoptosis was determined by TUNEL assay (E) The LNCaP cells were transfected with plasmids as indicated for 16 h, harvested, and the cell extracts were subjected to SDS-PAGE. The Akt activity was determined by Western blotting using phospho(S473)-Akt antibody. (F) The U87MG cells were transfected with plasmids as indicated for 16 h, and the medium was changed 0.1% CDS media for 2 days. The cell apoptosis was determined by TUNEL assay. Data for luciferase activity and apoptosis are means±s.d. from three independent experiments.

AR transactivation = assay: AR transactivation, MMTV-CAT reporter in DU145 cells transfected with AR; type: cell-based, human
Text: 250. To dissect the divergent effects of IL-6 in prostate tumor growth, Qui, Y. et al., Nature 393, 83-85 (1998); Hobisch, A. et al., Cancer Res. 58, 4640-4645 (1998); Ritchie, C. K. et al., Endocrinology 138, 1145-1150 (1997), the potential influences of IL-6 on the transactivation of AR, the master regulator of the prostate tumor growth were studied. Chang, C. et al., Science 240, 324.326 (1988); Chang, C. et al., Crit. Rev. Eukaryotic Gene Expression 5, 97-125 (1995). Because IL-6 has two major signal cascades, mitogen-activated protein kinase (MAPK) and phosphatidylinositol 3-kinase (PI3K), Qui, Y. et al., Nature 393, 83-85 (1998); Qui, Y. et al., Proc. Natl. Acad. Sci. USA 95, 3644-3649 (1998), inhibitors were applied to specifically block one of these two IL-6 signal pathways. DU145 cells were transfected for 24 h with AR and MMTV-CAT reporter gene. After transfection, the cells were serum starved for 24 h. Next, 20 μM LY294002, P098059 or vehicle was added to serum-free medium 30 min prior to IL-6 treatment. […] The cells were then harvested and AR transactivation was measured by CAT activity. […] Vlahos, C. J. et al., J. Biol. Chem. 269, 5241-5148 (1994). […] Alessi, D. R. et al., J. Biol. Chem. 270, 27489-27494 (1995).
251. IL-6's effect on PI3K activity was tested. After serum starvation for 24 h, LNCaP, PC-3 or DU145 cells were treated with 50 μg/ml IL-6 for 30 minutes. The cells were then harvested. PI3K activity was measured by using phosphatidylinositol (PT) as a substrate. […] The transactivation was measured by CAT activity.
252. Focus then turned to the two major downstream effectors of PI3K: a serine/threonine kinase (Akt/PKB) and a ribosomal S6 kinase (p70S6k). Franke, T. F. et al., Cell 88,435-437 (1997). […] The transactivation activity was determined after 24 h transfection.
262. The DU145 and PC-3 cells were maintained in Dulbecco's Minimum Essential Medium (DMEM) containing penicillin (25 μg/m1), streptomycin (25 μg/ml), and 5% fetal calf serum (FCS). The LNCaP cells were maintained in RPMI-1640 with 10% FCS. Transfections were performed using the calcium phosphate precipitation method, as previously described. Yeh, S. et al., Proc. Natl. Acad. Sci. USA 93, 5517-5521(1996).
277. The DU145 and PC-3 cells were maintained in Dulbecco's Minimum Essential Medium (DMEM) containing penicillin (25 U/ml), streptomycin (25 μg/ml), and 5% fetal calf serum (FCS). The LNCaP cells were maintained in RPMI-1640-10% FCS. Transfections were performed using the calcium phosphate precipitation method in PC-3 and DU145, as previously described. Yeh, S., Lin, H. K., Kang, H. Y., Thin, T. H., Lin, M. F. & Chang, C. (1999) Proc Natl Acad Sci U S A 96, 5458-63. LNCaP cells were transfected using SuperFect™ according to standard procedures (Qiagen).

For “dAkt: dominant-negative Akt, a kinase deficient mutant, K179A”, the AR degradation (AR protein stability) was “did not promote AR degradation”, the “Reduction in Akt activity” value (Akt) was 50% and the “Effect on DHT-induced AR transactivation (CAT activity)” value (AR transactivation; presence of androgen) was “induce AR transactivation in a dose-dependent manner; also recorded: induce wtAR transactivation in a dose-dependent manner”. For the same substance, the “Effect on p110/p110*-repressed AR transactivation” value (AR transactivation; rapamycin 20 nM 30 min prior to 1 nM DHT, dAkt co-transfected) was “reversed the p110-repressed AR transactivation; also recorded: reversed this p110*-repressed AR transactivation”.
